Measured values from patent US20250084039A1, “4-SUBSTITUTED AMINOISOQUINOLINE DERIVATIVES” (Purdue Research Foundation, priority 2016, published 2025).

Legend:
MV4-11 [1] = experiment: Anti-proliferative effects in leukemia panel; format: cell-based; conditions: for IC50: Homo sapiens, MV4-11, read-out: Anti-proliferative effects in leukemia panel (μM) MV4-11
Description: Molm-14 cells were the kind gift of Dr. Mark Levis from Johns Hopkins University. […] Cell lines were grown and maintained according to ATCC recommendations.
(§1) Cell lines were seeded into 96-well plates the afternoon prior to treatment. Approximately 18 hours later, compounds were semi-serially diluted in dimethyl sulfoxide (DMSO) and then growth medium, and added to cells. Plates were incubated for 72 hours prior to addition of Alamar Blue (Life Technologies. Carlsbad, CA). Plates were read after 4 additional hours of incubation at 37° C. using a Bio-Tek Synergy HT plate reader (Bio-Tek, Winooski. VT). Data was analyzed and graphed using GraphPad Prism Software (Graphpad. La Jolla, CA).

MOLM14 = experiment: Anti-proliferative effects in leukemia panel; format: cell-based; conditions: Homo sapiens, MOLM-14
Description: Molm-14 cells were the kind gift of Dr. Mark Levis from Johns Hopkins University. THP-1, MV4-11, K-562 and MRC-5A cells were purchased from ATCC (ATCC, Manassas, VA). All cell lines were grown in 37° C. with 5% CO2 atmosphere with RPMI 1640 (Life technologies, Carlsbad. CA) supplemented with heat-inactivated 10% (V/V) fetal bovine serum. Cell lines were grown and maintained according to ATCC recommendations.
as §1

c-kit = c-kit (Homo sapiens (Human), UniProt P10721); experiment: Reaction Biology HotSpot kinase assay; format: biochemical; conditions: 500 nM compound, 100 μM radiolabeled ATP
Chain of c-kit (P10721 26-976): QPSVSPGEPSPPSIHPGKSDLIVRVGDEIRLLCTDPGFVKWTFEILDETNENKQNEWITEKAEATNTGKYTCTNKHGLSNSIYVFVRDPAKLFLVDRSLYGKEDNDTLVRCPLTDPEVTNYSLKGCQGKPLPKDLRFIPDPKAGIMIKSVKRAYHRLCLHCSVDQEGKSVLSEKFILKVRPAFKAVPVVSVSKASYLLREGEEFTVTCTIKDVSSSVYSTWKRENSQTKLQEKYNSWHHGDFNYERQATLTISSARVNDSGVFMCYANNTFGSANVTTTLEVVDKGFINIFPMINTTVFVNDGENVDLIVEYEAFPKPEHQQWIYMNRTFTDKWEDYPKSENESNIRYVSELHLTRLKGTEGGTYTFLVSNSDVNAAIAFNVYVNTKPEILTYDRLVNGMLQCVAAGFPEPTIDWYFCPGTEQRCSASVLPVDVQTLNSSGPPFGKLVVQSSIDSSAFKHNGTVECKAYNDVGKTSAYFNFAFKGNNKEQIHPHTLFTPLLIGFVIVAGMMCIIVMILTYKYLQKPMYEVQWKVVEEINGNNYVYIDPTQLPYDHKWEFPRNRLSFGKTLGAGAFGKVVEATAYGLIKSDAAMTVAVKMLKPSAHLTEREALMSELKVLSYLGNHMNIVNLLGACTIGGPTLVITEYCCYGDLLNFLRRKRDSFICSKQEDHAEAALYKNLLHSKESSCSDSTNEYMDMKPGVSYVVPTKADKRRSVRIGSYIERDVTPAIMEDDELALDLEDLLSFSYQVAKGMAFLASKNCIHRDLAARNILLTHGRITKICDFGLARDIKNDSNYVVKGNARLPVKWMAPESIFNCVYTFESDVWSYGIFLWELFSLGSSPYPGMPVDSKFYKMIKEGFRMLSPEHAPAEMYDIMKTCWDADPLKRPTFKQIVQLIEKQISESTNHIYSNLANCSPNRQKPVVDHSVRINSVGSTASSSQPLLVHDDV
Description: (§2) The Reaction Biology Corporation (www.reactionbiology.com, Malvern, PA) HotSpot assay platform was used to measure kinase/inhibitor interactions exactly as previously described. Kinase and substrate were mixed in a buffer containing 20 mM HEPES pH 7.5, 10 mM MgCl2, 1 mM EGTA, 0.02% Brij35, 0.02 mg/mL BSA, 0.1 mM Na3VO4, 2 mM DTT and 1% DMSO. Single-dose of compounds (500 nM) were then added to each reaction mixture. After 20-minute incubation. ATP (Sigma) and [γ-^33P] ATP (Perkin Elmer) were added at a final total concentration of 100 μM for addition 2 hours at room temperature, followed by spotting onto P81 ion exchange cellulose chromatography paper (Whatman, Inc.). […] Percent remaining kinase activity of a vehicle (DMSO) containing kinase reaction was calculated for each kinase/inhibitor pair using Prism 5 (GraphPad).
as §2, with “1” for “DTT”, “incubation,” for “incubation.”

TRKC = TRKC (Homo sapiens (Human), UniProt Q16288); experiment: Reaction Biology HotSpot kinase assay; format: biochemical; conditions: 500 nM compound, 100 μM radiolabeled ATP
Chain of TRKC (Q16288 32-839): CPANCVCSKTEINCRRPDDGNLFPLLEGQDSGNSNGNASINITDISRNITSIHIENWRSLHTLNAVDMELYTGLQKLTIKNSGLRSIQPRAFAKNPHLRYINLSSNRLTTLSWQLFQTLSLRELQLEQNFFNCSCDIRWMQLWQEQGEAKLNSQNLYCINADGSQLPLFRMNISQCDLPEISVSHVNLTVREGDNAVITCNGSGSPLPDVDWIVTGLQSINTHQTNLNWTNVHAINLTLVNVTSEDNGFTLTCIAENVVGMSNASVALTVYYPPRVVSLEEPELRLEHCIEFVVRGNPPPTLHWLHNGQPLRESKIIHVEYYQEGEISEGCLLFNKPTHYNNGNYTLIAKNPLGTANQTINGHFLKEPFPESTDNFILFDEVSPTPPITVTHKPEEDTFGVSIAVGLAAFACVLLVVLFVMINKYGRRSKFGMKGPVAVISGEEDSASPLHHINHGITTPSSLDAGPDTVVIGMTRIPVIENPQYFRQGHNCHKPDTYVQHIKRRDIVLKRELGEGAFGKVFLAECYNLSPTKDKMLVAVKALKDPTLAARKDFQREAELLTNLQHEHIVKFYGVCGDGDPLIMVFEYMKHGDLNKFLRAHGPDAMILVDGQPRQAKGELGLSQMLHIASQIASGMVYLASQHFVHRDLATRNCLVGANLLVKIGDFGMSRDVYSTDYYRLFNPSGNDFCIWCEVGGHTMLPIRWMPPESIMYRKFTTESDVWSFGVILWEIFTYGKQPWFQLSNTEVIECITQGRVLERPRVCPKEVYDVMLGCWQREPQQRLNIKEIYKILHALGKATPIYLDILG
Description: as §2
as §2, with “1” for “DTT”, “incubation,” for “incubation.”

HCT116 = experiment: Proliferation inhibition at single concentration (CellTiter-Blue); format: cell-based; conditions: 1 μM compound
MV4-11 [2] = experiment: Activity against AML cell line MV4-11 (CellTiter-Blue, 72 h); format: cell-based
Description: Cells were added to 96 well plates at 2000 cells per well for adherent lines and 4000 cells per well for suspension lines and kept in an incubator overnight. The following day the plates were treated with compounds to give rise to the final concentrations of; 100 μM, 10 μM, 5 μM 1 μM, 500 nM, 100 nM, 10 nM, […]. The plates were then stored in the incubator for 72 hours. On the third day the cells were assayed with 20 μL of CellTiter—Blue Cell Viability Assay per well and were incubated for 4 hours. After 4 hours' fluorescence intensity was taken on a plate reader: Excitation: 560/10 Emission: 590/10. IC50 analysis was performed on GraphPad Prism 7.

HeLa = experiment: Proliferation inhibition at single concentration (CellTiter-Blue); format: cell-based; conditions: 1 μM compound
Description: (§3) Plates were then treated with compound diluted in dimethyl sulfoxide (DMSO) as well as a DMSO control the following day for 72 hours. After this time the plates were then treated with 10 μL of CellTiter-Blue Cell Viability Assay (Promega, Madison, WI) for 4 hours. Then the plates were read on a plate reader (Bio-Tek, Winooski, VT). Data was analyzed on Excel as a percent of the DMSO vehicle.
(§4) Antiproliferative activities against AML cell line, MV4-11 (a FLT3-driven cell line) and three other solid tumors (MCF7, breast, HCT116, colon and HeLa) have been investigated (Tables 6A and 6B and FIG. 10).

MCF-7 = experiment: as above; format: cell-based; conditions: 1 μM compound
Description: as §3, §4

MV-4-11 = experiment: as above; format: cell-based; conditions: 1 μM compound
[3] = 72 h, read-out: IC50 against MV4-11/uM
[4] = Table 2, read-out: IC50 (nM) against MV4-11 (AML cell line)
[5] = FIG. 1, read-out: anticancer activities (IC50) against MV4-11

Row | Molecule | IC50 (MV4-11 [1]) [µM] | IC50 (MOLM14) [µM] | Percent inhibition of proliferation HCT116 (HCT116) [%] | IC50 (MV4-11 [2]; [3]) [µM] | Percent inhibition of proliferation HeLa (HeLa) [%] | Percent inhibition of proliferation MCF-7 (MCF-7) [%] | Percent inhibition of proliferation MV-4-11 (MV-4-11) [%] | further results
1 | Nc1nccc(Cl)c1C#Cc1ccc(C2=NCCN2)cc1 [HSM1798] | > 5 | > 5 | – | – | – | – | – | anti-proliferative activity in words, MV4-11 / AML cell lines (MV4-11 [1]): ineffective; inhibition at 0.5 µM (c-kit): 15%; inhibition at 0.5 µM (TRKC): 11%
2 | Nc1nnc2ccccc2c1C#Cc1ccc(C2=NCCN2)cc1 [HSM1796] | > 5 | > 5 | – | – | – | – | – | anti-proliferative activity in words, MV4-11 / AML cell lines (MV4-11 [1]): ineffective; inhibition at 0.5 µM (c-kit): 3%; inhibition at 0.5 µM (TRKC): 7%
3 | Nc1ncc2ccc(Cl)cc2c1C#Cc1ccc(C(=O)NCCCN2CCCC2)cc1 [HSM1673] | – | – | 28 | 0.011 | 38 | 56 | 98 | IC50 (MV4-11 [2]; [4]): 0.025 ± 0.0014 µM
4 | Nc1ncc2ccc(Cl)cc2c1C#Cc1ccc(C(=O)N2CCC(N3CCCCC3)CC2)cc1 [HSN135] | – | – | 21 | 0.033 | 0 | 35 | 100 | –
5 | CC1(C)CNC(c2ccc(C#Cc3c(N)ncc4ccc(Cl)cc34)cc2)=N1 [HSM1743] | 0.07 ± 0.02 | 0.3 | – | – | – | – | – | inhibition at 0.5 µM (c-kit): 78%; inhibition at 0.5 µM (TRKC): 44%
6 | N=C(NO)c1ccc(C#Cc2c(N)ncc3ccc(Cl)cc23)cc1 [HSM1820] | 0.04 ± 0.01 | 0.05 | – | – | – | – | – | inhibition at 0.5 µM (c-kit): 86%; inhibition at 0.5 µM (TRKC): 74%
7 | Nc1ncc2ccc(Cl)cc2c1C#Cc1ccccc1C(=O)NCCCN1CCCCC1 [HSM1717] | – | – | 33 | 0.05 | 2 | 76 | 82 | –
8 | COCCCNC(=O)c1ccc(C#Cc2c(N)ncc3ccc(Cl)cc23)cc1 [HSM1692] | – | – | 29 | 0.45 | 0 | 22 | 81 | IC50 (MV4-11 [2]; [5]): 0.45 µM
9 | Nc1ncc2ccc(Cl)cc2c1C#Cc1ccc(C(=O)N[C@H]2CC[C@H](N)CC2)cc1.O=C(O)C(F)(F)F [HSN129] | – | – | 29 | 0.008 | 22 | 37 | 99 | –
10 | Nc1ncc2ccc(Cl)cc2c1C#Cc1ccc(C(=O)NCCN2CCCCC2)cc1 [HSN137] | – | – | 60 | 0.006 | 20 | 74 | 99 | –
11 | CN1CCN(Cc2ccc(NC(=O)c3ccc(C#Cc4c(N)ncc5ccc(Cl)cc45)cc3)cc2)CC1 [HSM1661] | – | – | 0 | 0.016 | 1 | 96 | 90 | –
12 | Nc1ccc(CCNC(=O)c2ccc(C#Cc3c(N)ncc4ccc(Cl)cc34)cc2)cc1 [HSN136] | – | – | 38 | 0.095 | 0 | 33 | 86 | –
13 | C(#Cc1cncc2ccccc12)c1ccc(C2=NCCN2)cc1 [HSM1813] | > 5 | > 5 | – | – | – | – | – | anti-proliferative activity in words, MV4-11 / AML cell lines (MV4-11 [1]): not a potent inhibitor; inhibition at 0.5 µM (c-kit): 39%; inhibition at 0.5 µM (TRKC): 17%
14 | CN(C)CCCNC(=O)c1cccc(C#Cc2c(N)ncc3ccc(Cl)cc23)c1 [HSM1688] | – | – | 43 | 0.25 | 64 | 33 | 74 | IC50 (MV4-11 [2]; [5]): 0.25 µM
15 | (E)-4-(2-(3-amino-6-chloroisoquinolin-4-yl)vinyl)-N-hydroxybenzimidamide [HSM1859] | – | – | – | – | – | – | – | % inhibition of c-Kit (c-kit): 62%; % inhibition of TrkC (TRKC): 42%
16 | Nc1ncc2ccc(Cl)cc2c1C#Cc1ccc(C(=O)NCCCN2CCCCC2)cc1 [HSM1683] | – | – | 10 | 0.003 | 49 | 57 | 95 | IC50 (MV4-11 [2]; [4]): 0.0421 ± 0.0013 µM
17 | CC(C)(C)c1cc(NC(=O)Nc2ccc(-c3cn4c(n3)sc3cc(OCCN5CCOCC5)ccc34)cc2)no1 [Quizartinib, quizartinib, reference compound] | 0.001 ± 0.001 | 0.001 ± 0.001 | – | – | – | – | – | –
18 | CN(C)CCNC(=O)c1ccc(C#Cc2c(N)ncc3ccc(Cl)cc23)cc1 [HSM1669] | – | – | 46 | 0.26 | 20 | 98 | 83 | IC50 (MV4-11 [2]; [5]): 0.26 µM
19 | CN1CCN(CCCNC(=O)c2ccc(C#Cc3c(N)ncc4ccc(Cl)cc34)cc2)CC1 [HSM1674] | – | – | 14 | 0.11 | 8 | 36 | 93 | –
20 | Nc1ncc2[nH]ccc2c1C#Cc1ccc(C2=NCCN2)cc1 [HSM1781] | > 5 | > 5 | – | – | – | – | – | anti-proliferative activity in words, MV4-11 / AML cell lines (MV4-11 [1]): ineffective
